Measurements as given in patent publication US8563578B2, “Antitumor properties of NO modified protease inhibitors” (Onconox APS, priority 2008, dated 2013).

Assays:
[1] = system: CCR% e CXCR4 strains; assay: In-vitro anti-HIV activity; format: cell-based
[2] = system: C6 rat astrocytoma; assay: Cell viability, C6 cells; format: cell-based; details: read-out: reduction of cell viability
From the text: (§1) Rat glioma C6 and human glioblastoma U251 cell lines were a kind gift from Dr. Pedro Tranque (Universidad de Castilla-La Mancha, Albacete, Spain), murine melanoma B 16, and human adenocarcinoma HeLa, were a kind gift from Dr. Sinisa Radulovic (Institute for Oncology and Radiology of Serbia, Belgrade, Serbia) while mouse fibrosarcoma L929 was obtained from the European Collection of Animal Cell Cultures (Salisbury, UK). Human breast HCC1419 and prostate PC-3 cells were purchased from LGC Promochem srl (Venezia, Italy). Primary mouse fibroblasts and rat astrocytes were prepared as described (Mijatovic et al. 2004). […]
(§2) Reduction of 3-4,5-dimethylthiazol-2-yl)-2,5-diphenyltetrazolium bromide (MTT) to formazan depends on mitochondrial activity of cultured cells, absorption of crystal violet dye correlates with the number of adherent, live cells, while the release of cytosolic lactate dehydrogenase (LDH) indicates the disruption of membrane integrity caracteristic for necrotic cells. […] Mitohondrial-dependent production of formazan and intensity of absorbed crystal violet by adherent cells were assessed by an automated microplate reader at 570 nm, while the pyruvate-mediated conversion of 2,4-dinitrophenylhydrazine into visible hydrazone precipitate in LDH assay was measured at 492 nm. […]
(§3) FIG. 2. […] Cell viability was then evaluated by CV test. […]

[3] = system: C6 cells; assay: Cell proliferation by CFSE staining, C6; format: cell-based, rat; details: 18.8 μM, 48 h, about 90% of control cells divided
Protocol: Rate of cell proliferation was verified by flow cytometric analysis of cells labelled with CFSE (Kang et al. 2005). CFSE dye is stable in cytoplasm more than 15 generations and the intensity of fluorescence decline after each division. Briefly, detached cells were stained with 1.5 μM CFSE for the 15 min at 37° C., washed 2 times, seeded in 6-well plates at 2×10^5 cells/well and then exposed to drugs. After 24 and 48 h of cultivation cells were trypsinized and washed 2 times. Finally, the cells were resuspended in PBS and analyzed by flow cytometry. Green fluorescence emission was measured with a FACSCalibur (BD, Heidelberg, Germany) and analyzed using CellQuest software.
FIG. 4. […] Results are calculated as indicated in materials and methods and presented as mean±SD from representative of three independent experiment (*p <0.05). […] After 24 h of cultivation without or with drugs, cells were stained with AO orange (B) or PI (C) and analyzed by flow cytometry. The data are presented as mean±SD from three independent experiments. *p<0.05, refers to untreated cultures. […] Cells were incubated with 18.8 μM of Sag or Saq-NO2 for 24 h. After that, the drugs were either removed or not from the cells and incubated for additional 24 h. Cell viability was determined by CV test after 24 and 48 h of incubation (right panels). […]

[4] = system: B16 cells; assay: MBP expression by cell-based ELISA, B16; set-up: species or system mouse; details: 18.8 μM, 24 h
From the text: A slightly modified method for cell-based ELISA (cELISA) by Versteeg (Versteed et al., 2000) was used to measure the expression of galactocerebroside, glial fibrilar acidic protein (GFAP), myelin basic protein (MBP), cyclin D3, p53 and p-AKT. Briefly, at the end of cultivation period cells were fixed in 4% paraformaldehyde, endogenous peroxydase was quenched with 1% H2O2 in PBS containing 0.1% Triton X-100 (PBST), and unspecific binding of antibodies blocked with PBST solution containing 10% FCS. […] The absorbance at 450 nm was measured in an automated microplate reader 15 min after incubation with peroxydase substrate TMB and subsequently to addition of 0.1 M HCl. To facilitate comparison between treatments, the obtained absorbances were corrected for the cell number that was determined by crystal violet staining, as described in the original protocol. […]
FIG. 5. […] Cell morphology was assessed by light microscopy (A). Markers of cell differentiation of C6 and B16 cells, galactocerebroside, GFAP and MBP were determined by cELISA and melanin and tyrosinase activity were determined as described in material and methods (B). Cyclin D3 and p53 expression were evaluated by cELISA (C, upper panels), immunocytochemistry (C, middle panel) and Western blot (C, lower panel). […]

[5] = system: B16 mouse melanoma; assay: Cell viability, B16 cells; format: cell-based; details: read-out: reduction of cell viability
From the text: as §1, §2, §3

For CC(C)(C)NC(=O)[C@@H]1C[C@@H]2CCCC[C@@H]2CN1C[C@@H](O[N+](=O)[O-])[C@H](Cc1ccccc1)NC(=O)[C@H](CC(N)=O)NC(=O)c1ccc2ccccc2n1 [Saq-NO2, nitric ester of Saquinavir], the “in-vitro anti-HIV activity compared with Saquinavir” value [1] was “at least as high as that of Saquinavir”, the cytotoxicity at 18.8 µM [2] was ~50% and the “cells able to proliferate (divided)” value [3] was “less than 10%”. The MBP expression [4] was “mild elevation” and the cytotoxicity at 18.8 µM [5] was ~70%.
